Source: patent US7183091B2, “Sulfite reductase, the process for producing the same and the use thereof” (Nugen Bioscience (Taiwan) Co., Ltd., priority 2003, dated 2007)
Like-named read-outs stand apart in the source and are kept apart here.

How the values were obtained:
[1] = test system: sulfite reductase from Escherichia coli; assay: Effects of metal ions, inhibitors and reducing agents on enzyme activity; format: biochemical
Procedure: (§1) […]. To 0.9 mL reaction mixture [0.1 M phosphate buffer (pH 7.7) containing 0.5 mM EDTA, 0.5 mM NaHSO3, 1 μM FMN, and 0.2 mM NADPH], 0.1 mL of reductase was added and incubated at 25° C. The activity was determined according to the initial velocity after the addition of reductase and corrected by the slow oxidation of NADPH in the absence of sulfite. One activity unit was defined as the amount of enzyme which catalyzed the oxidation of 1 μmol NADPH within 1 minute reaction 25° C. under the above condition.

[2] = target: T1, sulfite reductase from Saccharomyces cerevisiae (Saccharomyces cerevisiae, UniProt P39692+P47169); assay: as above; format: biochemical; details: for effect of metal ions on catalytic activity: metals 0.5, 1.0, 5.0 and 10.0 mM
T1 construct: Saccharomyces cerevisiae cell was collected by 30 min centrifugation at 4,000×g; made in house; host or cells: endogenous enzyme purified from cultured Saccharomyces cerevisiae cells (not recombinant)
T1 sequence (P47169 1-1442): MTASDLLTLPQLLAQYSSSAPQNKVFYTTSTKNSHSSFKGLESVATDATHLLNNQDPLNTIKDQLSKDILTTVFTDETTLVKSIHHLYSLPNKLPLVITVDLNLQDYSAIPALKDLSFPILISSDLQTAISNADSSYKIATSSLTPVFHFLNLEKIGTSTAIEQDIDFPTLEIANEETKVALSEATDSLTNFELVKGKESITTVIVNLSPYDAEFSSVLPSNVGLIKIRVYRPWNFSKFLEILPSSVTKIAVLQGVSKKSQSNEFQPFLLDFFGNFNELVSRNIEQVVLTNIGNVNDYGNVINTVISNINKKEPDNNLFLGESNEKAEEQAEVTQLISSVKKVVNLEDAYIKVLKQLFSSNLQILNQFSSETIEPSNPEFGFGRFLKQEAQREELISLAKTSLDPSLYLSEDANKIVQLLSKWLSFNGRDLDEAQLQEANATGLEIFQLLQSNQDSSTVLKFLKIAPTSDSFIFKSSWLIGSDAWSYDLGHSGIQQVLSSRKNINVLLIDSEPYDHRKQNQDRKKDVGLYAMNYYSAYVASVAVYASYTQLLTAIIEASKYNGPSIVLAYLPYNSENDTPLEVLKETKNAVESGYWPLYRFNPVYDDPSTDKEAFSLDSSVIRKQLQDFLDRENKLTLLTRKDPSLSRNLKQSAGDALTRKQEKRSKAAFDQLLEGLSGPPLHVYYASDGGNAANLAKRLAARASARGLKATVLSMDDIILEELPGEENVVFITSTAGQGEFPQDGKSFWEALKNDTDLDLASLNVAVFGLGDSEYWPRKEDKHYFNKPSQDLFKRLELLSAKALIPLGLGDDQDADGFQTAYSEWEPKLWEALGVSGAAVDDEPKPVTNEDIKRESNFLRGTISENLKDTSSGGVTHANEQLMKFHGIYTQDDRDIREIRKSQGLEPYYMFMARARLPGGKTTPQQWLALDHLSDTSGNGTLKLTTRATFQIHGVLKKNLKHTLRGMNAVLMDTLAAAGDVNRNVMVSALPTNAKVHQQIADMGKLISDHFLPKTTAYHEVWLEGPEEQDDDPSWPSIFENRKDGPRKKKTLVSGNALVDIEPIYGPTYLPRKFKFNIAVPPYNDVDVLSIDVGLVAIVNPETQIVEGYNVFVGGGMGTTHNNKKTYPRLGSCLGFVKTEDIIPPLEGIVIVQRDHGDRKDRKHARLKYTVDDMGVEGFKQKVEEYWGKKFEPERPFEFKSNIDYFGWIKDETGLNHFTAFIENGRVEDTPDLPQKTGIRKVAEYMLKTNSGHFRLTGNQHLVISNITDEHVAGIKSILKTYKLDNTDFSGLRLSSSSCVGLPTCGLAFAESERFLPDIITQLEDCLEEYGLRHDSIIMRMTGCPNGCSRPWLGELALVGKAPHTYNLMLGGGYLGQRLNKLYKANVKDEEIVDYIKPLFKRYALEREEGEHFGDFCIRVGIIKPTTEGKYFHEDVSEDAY
T1 sequence (P39692 1-1035): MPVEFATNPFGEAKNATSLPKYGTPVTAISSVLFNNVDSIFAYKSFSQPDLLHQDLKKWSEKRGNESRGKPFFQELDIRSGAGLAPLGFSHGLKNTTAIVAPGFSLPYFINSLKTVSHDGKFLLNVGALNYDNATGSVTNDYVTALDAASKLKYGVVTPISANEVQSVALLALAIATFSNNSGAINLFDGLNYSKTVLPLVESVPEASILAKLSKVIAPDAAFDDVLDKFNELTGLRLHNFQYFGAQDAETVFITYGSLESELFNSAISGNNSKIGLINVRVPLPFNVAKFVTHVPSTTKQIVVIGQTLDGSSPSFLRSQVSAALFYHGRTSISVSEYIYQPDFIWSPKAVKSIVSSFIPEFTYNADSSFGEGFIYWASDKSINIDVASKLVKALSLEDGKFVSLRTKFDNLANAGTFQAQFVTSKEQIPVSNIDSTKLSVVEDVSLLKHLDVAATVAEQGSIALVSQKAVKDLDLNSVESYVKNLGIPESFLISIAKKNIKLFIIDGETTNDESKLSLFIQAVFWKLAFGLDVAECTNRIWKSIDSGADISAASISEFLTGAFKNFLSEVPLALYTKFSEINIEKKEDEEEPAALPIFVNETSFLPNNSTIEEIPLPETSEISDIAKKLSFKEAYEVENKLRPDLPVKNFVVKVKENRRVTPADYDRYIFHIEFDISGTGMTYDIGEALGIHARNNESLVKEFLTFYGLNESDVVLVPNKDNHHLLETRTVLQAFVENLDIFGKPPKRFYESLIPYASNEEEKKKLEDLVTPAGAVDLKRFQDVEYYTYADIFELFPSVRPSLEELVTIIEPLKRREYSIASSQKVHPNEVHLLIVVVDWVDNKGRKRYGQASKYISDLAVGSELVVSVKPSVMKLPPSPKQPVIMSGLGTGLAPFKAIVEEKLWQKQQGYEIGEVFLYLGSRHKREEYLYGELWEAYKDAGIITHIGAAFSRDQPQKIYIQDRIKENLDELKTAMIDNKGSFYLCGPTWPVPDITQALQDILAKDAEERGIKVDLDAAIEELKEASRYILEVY
Procedure: as §1

[3] = metals 0.5, 1.0, 5.0 and 10.0 mM, 25° C., 30 minutes
[4] = inhibitor 1.0 mM, 25° C., 30 minutes

## [Co+2] [Co^2+]
[1]; [3]
  effect of metal ions on catalytic activity: strongly inhibited
[2]; 25° C., 30 minutes
  effect of metal ions on catalytic activity: partially

## OCCS [β-mercaptoethanol]
[1]
  effect of reducing agents on enzyme activity: improved the activity
[2]
  effect of reducing agents on enzyme activity: improved the activity

## [Zn+2] [Zn^2+]
[1]; [3]
  effect of metal ions on catalytic activity: moderately
[2]; 25° C., 30 minutes
  effect of metal ions on catalytic activity: strongly inhibited

## O=C(O)c1cc[c]([Hg][Cl])cc1 [PCMB, p-chloromercuribenzoate]
[1]; [4]
  effect of inhibitors on catalytic activity: completely inhibited
[2]; [4]
  effect of inhibitors on catalytic activity: completely inhibited

## [Na+] [Na^+]
[1]; [3]
  effect of metal ions on catalytic activity: did not affect the enzyme activity
[2]; 25° C., 30 minutes
  effect of metal ions on catalytic activity: did not affect the enzyme activity

## [Cu+2] [Cu^2+]
[1]; [3]
  effect of metal ions on catalytic activity: strongly inhibited
[2]; 25° C., 30 minutes
  effect of metal ions on catalytic activity: strongly inhibited

## [Ni+2] [Ni^2+]
[2]; 25° C., 30 minutes
  effect of metal ions on catalytic activity: partially

## CCN1C(=O)C=CC1=O [NEM, N-ethylmaleimide]
[1]; [4]
  effect of inhibitors on catalytic activity: partially
[2]; [4]
  effect of inhibitors on catalytic activity: partially

## [Mg+2] [Mg^2+]
[1]; [3]
  effect of metal ions on catalytic activity: did not affect the enzyme activity
[2]; 25° C., 30 minutes
  effect of metal ions on catalytic activity: did not affect the enzyme activity

## [Cd+2] [Cd^2+]
[1]; [3]
  effect of metal ions on catalytic activity: moderately

## O[C@H](CS)[C@H](O)CS (racemic) [dithiothreitol]
[1]
  effect of reducing agents on enzyme activity: improved the activity
[2]
  effect of reducing agents on enzyme activity: improved the activity

## [Fe+2] [Fe^2+]
[1]; [3]
  effect of metal ions on catalytic activity: strongly inhibited
[2]; 25° C., 30 minutes
  effect of metal ions on catalytic activity: partially

## [Pb+2] [Pb^2+]
[2]; 25° C., 30 minutes
  effect of metal ions on catalytic activity: strongly inhibited

## [Hg+2] [Hg^2+]
[1]; [3]
  effect of metal ions on catalytic activity: strongly inhibited
[2]; 25° C., 30 minutes
  effect of metal ions on catalytic activity: strongly inhibited

## [Ca+2] [Ca^2+]
[1]; [3]
  effect of metal ions on catalytic activity: strongly inhibited
[2]; 25° C., 30 minutes
  effect of metal ions on catalytic activity: did not affect the enzyme activity

## N[C@@H](CS)C(=O)O [cysteine]
[1]
  effect of reducing agents on enzyme activity: improved the activity
[2]
  effect of reducing agents on enzyme activity: improved the activity

## [Mn+2] [Mn^2+]
[1]; [3]
  effect of metal ions on catalytic activity: moderately
[2]; 25° C., 30 minutes
  effect of metal ions on catalytic activity: partially

## [Ba+2] [Ba^2+]
[1]; [3]
  effect of metal ions on catalytic activity: moderately
[2]; 25° C., 30 minutes
  effect of metal ions on catalytic activity: partially

## O=C(O)CI [IAA, Iodoacetate]
[1]
  effect of inhibitors on catalytic activity: partially
[2]
  effect of inhibitors on catalytic activity: partially

## [K+] [K^+]
[1]
  effect of metal ions on catalytic activity: did not affect the enzyme activity
[2]; 25° C., 30 minutes
  effect of metal ions on catalytic activity: did not affect the enzyme activity

## O=S(=O)(F)Cc1ccccc1 [PMSF, phenylmethylsulfonyl fluoride]
[1]; [4]
  effect of inhibitors on catalytic activity: partially
[2]; [4]
  effect of inhibitors on catalytic activity: partially

## N[C@@H](CCC(=O)N[C@@H](CS)C(=O)NCC(=O)O)C(=O)O [glutathione]
[1]
  effect of reducing agents on enzyme activity: improved the activity
[2]
  effect of reducing agents on enzyme activity: improved the activity

## O=S(=O)(O)c1cc[c]([Hg][Cl])cc1 [PCMPS, p-chloromercuriphenylsulfonic acid]
[2]; [4]
  effect of inhibitors on catalytic activity: completely inhibited
